According to BindingDB's records for patent US20240409542 (Sitryx Therapeutics, 2024):

Molecular target: Pyruvate kinase PKM (Homo sapiens, UniProt P14618)
Assay: Activation Assay Measuring In Vitro Activation of Recombinant Human PKM2
Protocol: Human PKM2 was diluted into Assay Buffer comprising 50 mM imidazole, 50 mM KCl, 7 mM MgCl2, 0.01% Tween20, 0.05% BSA (pH 7.2) to a final concentration of 5 pM. Enzyme-Assay Buffer mix was dispensed into a 384-well shallow-well white-walled plate (PerkinElmer) and Test Compounds added by acoustic dispense (Echo , Labcyte Inc.). […] Kinase-Glo Plus reagent was added to each well and the plates incubated for a further 15 minutes on an orbital shaker in the dark (300 rpm, 26° C.) before luminescence measurement on a plate reader (PHERAstar FSX, BMG Labtech).

Sequence of Pyruvate kinase PKM (P14618 whole entry): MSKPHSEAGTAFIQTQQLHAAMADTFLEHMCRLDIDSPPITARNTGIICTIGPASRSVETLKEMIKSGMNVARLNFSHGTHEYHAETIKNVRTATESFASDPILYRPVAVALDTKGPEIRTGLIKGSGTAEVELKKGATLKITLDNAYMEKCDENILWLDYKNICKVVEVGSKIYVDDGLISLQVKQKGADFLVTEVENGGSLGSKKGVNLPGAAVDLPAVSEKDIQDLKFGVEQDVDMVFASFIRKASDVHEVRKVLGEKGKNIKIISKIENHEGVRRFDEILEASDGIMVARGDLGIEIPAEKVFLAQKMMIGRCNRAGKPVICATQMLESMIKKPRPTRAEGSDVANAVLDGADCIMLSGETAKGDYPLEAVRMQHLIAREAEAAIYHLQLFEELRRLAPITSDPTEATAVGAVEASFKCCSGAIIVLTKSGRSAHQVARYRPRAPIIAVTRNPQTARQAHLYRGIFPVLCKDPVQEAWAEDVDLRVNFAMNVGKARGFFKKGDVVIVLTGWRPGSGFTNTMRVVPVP

**Q.** Which EC50 does the source give for `Cn1c2c(c3cnn(Cc4cccc(C(C)(C)O)c4)c(=O)c31)CCN(S(C)(=O)=O)C2` [US20240409542, Example 33] here?
**A.** 354 nM
